For 5 compounds, IC50 results are on record in US20100111888A1, “Organic Compounds and Compositions Having the Ability to Modulate Fragrance Compositions” (GIVAUDAN SA, priority 2007, published 2010).

Common to all, as to format: biochemical
In assay [1] the target is T1, CYP2A13 (Homo sapiens, UniProt Q16696).
T1 construct: made in house; host or cells: Sf9 insect cells, recombinant baculovirus
T1 sequence (Q16696 1-494): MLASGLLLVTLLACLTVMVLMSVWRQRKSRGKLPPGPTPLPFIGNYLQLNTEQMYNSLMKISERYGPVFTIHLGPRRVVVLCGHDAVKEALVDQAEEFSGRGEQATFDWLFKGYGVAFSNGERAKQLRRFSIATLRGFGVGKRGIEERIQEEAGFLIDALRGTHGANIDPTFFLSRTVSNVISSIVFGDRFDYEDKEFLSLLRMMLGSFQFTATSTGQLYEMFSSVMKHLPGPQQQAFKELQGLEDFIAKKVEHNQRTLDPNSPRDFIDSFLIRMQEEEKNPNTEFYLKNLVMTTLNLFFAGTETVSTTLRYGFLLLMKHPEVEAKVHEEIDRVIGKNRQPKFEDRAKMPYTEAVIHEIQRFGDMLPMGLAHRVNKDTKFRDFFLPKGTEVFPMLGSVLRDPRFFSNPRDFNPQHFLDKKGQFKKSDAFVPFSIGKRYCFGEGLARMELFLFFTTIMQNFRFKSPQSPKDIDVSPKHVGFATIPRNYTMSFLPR
Briefly: Evaluation of test compounds as inhibitors of CYP2A13 (coumarin to Umbelliferone, fluorescence). The following applies: substrate coumarin 0.006 mM; microsomes with 7 pmoles CYP2A13; 60 min at 37° C.; read-out: CYP2A13 inhibitor activity IC50. From the text: P450 reductase is commercially available (BD Biosciences Gentest, USA).
Microsomes were used which contained 7 pmoles CYP2A13.

Assay [2] deals with T2, CYP2A6 (Homo sapiens, UniProt P11509).
T2 construct: purchased BD Biosciences Gentest, USA
T2 sequence (P11509 1-494): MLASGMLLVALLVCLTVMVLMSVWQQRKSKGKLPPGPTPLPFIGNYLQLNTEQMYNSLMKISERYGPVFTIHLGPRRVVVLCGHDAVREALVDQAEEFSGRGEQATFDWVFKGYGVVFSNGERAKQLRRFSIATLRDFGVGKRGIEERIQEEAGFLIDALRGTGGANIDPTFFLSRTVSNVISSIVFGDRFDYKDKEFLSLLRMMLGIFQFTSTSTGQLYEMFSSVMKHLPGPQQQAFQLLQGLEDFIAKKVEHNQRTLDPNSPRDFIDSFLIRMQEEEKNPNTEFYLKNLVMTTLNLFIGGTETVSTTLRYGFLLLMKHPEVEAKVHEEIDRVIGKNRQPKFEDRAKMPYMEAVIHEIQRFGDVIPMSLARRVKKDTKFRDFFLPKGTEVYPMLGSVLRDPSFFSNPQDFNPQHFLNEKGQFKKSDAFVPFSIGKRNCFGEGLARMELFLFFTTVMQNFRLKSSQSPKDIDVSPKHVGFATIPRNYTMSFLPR
Nature of the assay: Evaluation of test compounds as inhibitors of CYP2A6 (coumarin to Umbelliferone, fluorescence). Particulars: substrate coumarin 0.003 mM; microsomes with 2 pmoles CYP2A6; 60 min at 37° C.; read-out: CYP2A6 inhibitor activity IC50. The method, then:
Test compounds that inhibit the activity of CYP2A6 are identified by using the same principle as described in Example 1, first paragraph.
A test compound (details see Table 2) was incubated with CYP2A6 in the presence of a cytochrome P450 reductase. CYP2A6 and P450 reductase were employed in form of microsomes (BD Biosciences Gentest, USA). Microsomes were used which contained 2 pmoles CYP2A6 and an amount of NADPH-P450 reductase corresponding to cytochrome c reductase activity of 87 nmole/(min×mg protein). […] The concentration of the standard substrate coumarin was 0.003 mM.
The samples were analysed spectrofluorometrically according to the procedure described in Example 1.

Assay [3] addresses T3, CYP2B6 (Homo sapiens, UniProt P20813).
T3 construct: made in house; host or cells: Sf9 insect cells, recombinant baculoviruses
T3 sequence (P20813 1-491): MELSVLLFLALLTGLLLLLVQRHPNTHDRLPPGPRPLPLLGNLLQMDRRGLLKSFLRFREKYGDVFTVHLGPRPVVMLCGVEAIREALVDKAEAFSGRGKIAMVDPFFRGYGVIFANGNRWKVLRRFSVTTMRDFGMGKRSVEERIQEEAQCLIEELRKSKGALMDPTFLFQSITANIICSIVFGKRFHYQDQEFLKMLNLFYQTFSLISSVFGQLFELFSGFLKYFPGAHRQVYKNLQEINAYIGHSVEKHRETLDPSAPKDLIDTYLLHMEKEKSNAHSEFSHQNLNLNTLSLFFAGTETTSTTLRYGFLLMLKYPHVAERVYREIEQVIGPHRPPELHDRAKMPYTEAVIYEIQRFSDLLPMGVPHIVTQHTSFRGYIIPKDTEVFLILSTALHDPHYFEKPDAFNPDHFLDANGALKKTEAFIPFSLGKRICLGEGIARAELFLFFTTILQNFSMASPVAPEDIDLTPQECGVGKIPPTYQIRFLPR
Briefly: Inhibition of human CYP2B6 (7-ethoxy-4-trifluoromethyl-coumarin, fluorescence). The following applies: substrate 7-ethoxy-4-trifluoromethyl-coumarin 6 μM; microsomes with 1.5 pmoles CYP2B6; 40 min at 37° C.; read-out: CYP2B6 inhibitor activity IC50. As for the experimental part: Test compounds that inhibit the activity of CYP2B6 are identified by using the same principle as described in Example 1, first paragraph.
A test compound (details see Table 4) was incubated with CYP2B6 in the presence of a cytochrome P450 reductase. CYP2B6 and P450 reductase are produced using recombinant baculoviruses and co-expressing the two proteins in Sf9 insect cells as described in Example 1. Alternatively, microsomes containing CYP2B6 and the reductase are commercially available (BD Biosciences Gentest, USA). Microsomes were used which contained 1.5 pmoles CYP2B6. Potassium phosphate buffer final concentration was 100 mM, (1M stock, pH 7.4). […] The concentration of the standard substrate 7-ethoxy-4-trifluoromethyl-coumarin was 6 μM. […] The samples were incubated for 40 min at 37° C.

Take `CCCC/C(=C\C1CC1)C(C)=O` [Compound ID 1, (E)-3-(cyclopropylmethylene)heptan-2-one]: the values for the half-maximal inhibitory concentration (IC50) in assay [1], in assay [2] and in assay [3] were 0.5 µM, 3 µM and 3.9 µM, respectively.
Taken in the same sequence, the figures for `CCCCCC/C(=C\C1CC1)C(C)=O` [Compound ID 2, (E)-3-(cyclopropylmethylene)nonan-2-one] were 1.1 µM, 8 µM and 3.5 µM.
Turning to `CCCCC/C(=C\C1CC1)C(C)=O` [Compound ID 3, (E)-3-(cyclopropylmethylene)octan-2-one], the IC50 in assay [1] worked out at 0.3 µM; in assay [2], 7 µM; in assay [3], 4 µM.
With `CCCCCC(Cc1ccccc1)C(C)=O` (stereo not shown) [Compound ID 4, 3-phenylmethyloctan-2-one], the half-maximal inhibitory concentration (IC50) in assay [1] stood at 4.8 µM; in assay [2], 148 µM.
For the compound `CCCCC/C(=C\c1ccccc1)C(C)=O` [Compound ID 5, (E)-3-benzylideneoctan-2-one], the IC50 in assay [1] is 0.6 µM; in assay [2] it was 141 µM.
